Assay results published in patent US20170342064A1, “COMPOUNDS FOR THE TREATMENT OF CANCER” (Bayer Pharma Aktiengesellschaft, priority 2014, published 2017).

How the values were obtained:
[1] = In vitro stability in rat plasma (HPLC detection); format: in vitro ADME, wistar rat; details: 37° C., HPLC peak area ratio
Protocol: (§1) 1 mg of test compound is dissolved in 1.25 ml dimethylsulfoxide. Then 1.25 ml water are added. 0.5 ml of this sample solution are mixed with 0.5 ml heparinized and 37° C. warm plasma (wistar rat plasma or human plasma). A first sample (10 μl) is immediately taken for HPLC analysis. In the period up to 4 h after the start of incubation further 10 μl aliquots are taken after 30, 60, 90, 120 and 240 minutes and the amount of the test compound is determined. Agilent 1100 with DAD (G1315A), binary pump (G1312A), autosampler (G1329A), column oven (G1316A), thermostat (G1330B); column: Kromasil 100 C18, 250 mm×4 mm, 5 μm; column temperature: 45° C.; eluent A: water+5 ml of perchloric acid/litre, eluent B: acetonitrile. 0 min 98% A, 2% B→0-3.0 min 85% A, 15% B→3.0-8.0 min 55% A, 45% B→8.0-16.0 min 55% A, 45% B→16.0-20.0 min 10% A, 90% B→20.0-21.0 10% A, 90% B→21.0-24.0 min 98% A, 2% B→24.0-25.0 min 98% A, 2% B; flow rate: 1.5 ml/min; UV detection: 222 nm.

[2] = Stability in buffer at pH 7.4; format: physicochemical; details: buffer pH 7.4, 37° C., HPLC peak area ratio
Protocol: 0.3 mg of the test compound are solved in 0.1 ml dimethylsulfoxide and 0.4 ml acetonitrile. For complete dissolution the HPLC vial with the sample solution is sonified for about 20 seconds. Then 1.0 ml of the buffer solution is added, and the sample is again treated in the ultrasonic bath. 90 g of sodium chloride, 13.61 g of potassium dihydrogen phosphate and 83.35 g of 1 M sodium hydroxide solution are made up to 1 litre with Millipore water and then diluted 1:10. 10 μl portions of the sample solution are analysed by HPLC to determine the amount of the test compound over a period of 24 hours at 37° C. The peak areas in percentage are used for quantification. Agilent 1100 with DAD (G1315B), binary pump (G1312A), autosampler (G1329A), column oven (G1316A), thermostat (G1330B); column: Kromasil 100 C18, 250 mm×4 mm, 5 μm; column temperature: 37° C.; eluent A: water+5 ml of perchloric acid/litre, eluent B: acetonitrile. 0 min 98% A, 2% B→0-3.0 min 85% A, 15% B→3.0-8.0 min 50% A, 50% B→8.0-16.0 min 50% A, 50% B→16.0-20.0 min 10% A, 90% B→20.0-21.0 10% A, 90% B→21.0-24.0 min 98% A, 2% B→24.0-25.0 min 98% A, 2% B; flow rate: 1.5 ml/min; UV detection: 210 nm. The ratio of the peak areas (F) at different time points in relation to the peak areas at the starting time are shown in Table 1 for representative examples: […]

[3] = In vitro stability in human plasma (HPLC detection); format: in vitro ADME; details: 37° C., HPLC peak area ratio
Protocol: as §1

[4] = test system: HeLa human cervical tumor cells; assay: Proliferation assay (crystal violet), HeLa cells; format: cell-based; details: 96 h, 4 days incubation, crystal violet staining, read-out: Inhibition of cell proliferation, cell Line: HeLa IC50
Protocol: Cultivated tumor cells (MCF7, hormone dependent human mammary carcinoma cells, ATCC HTB22; NCI-H460, human non-small cell lung carcinoma cells, ATCC HTB-177; DU 145, hormone-independent human prostate carcinoma cells, ATCC HTB-81; HeLa-MaTu, human cervical carcinoma cells, EPO-GmbH, Berlin; HeLa-MaTu-ADR, multidrug-resistant human cervical carcinoma cells, EPO-GmbH, Berlin; HeLa human cervical tumor cells, ATCC CCL-2; B16F10 mouse melanoma cells, ATCC CRL-6475) were plated at a density of 5000 cells/well (MCF7, DU145, HeLa-MaTu-ADR), 3000 cells/well (NCI-H460, HeLa-MaTu, HeLa), or 1000 cells/well (B16F10) in a 96-well multititer plate in 200 μl of their respective growth medium supplemented 10% fetal calf serum. After 24 hours, the cells of one plate (zero-point plate) were stained with crystal violet (see below), while the medium of the other plates was replaced by fresh culture medium (200 μl), to which the test substances were added in various concentrations (0 μM, as well as in the range of 0.01-30 μM; the final concentration of the solvent dimethyl sulfoxide was 0.5%). The cells were incubated for 4 days in the presence of test substances. Cell proliferation was determined by staining the cells with crystal violet: the cells were fixed by adding 20 μl/measuring point of an 11% glutaric aldehyde solution for 15 minutes at room temperature. After three washing cycles of the fixed cells with water, the plates were dried at room temperature. The cells were stained by adding 100 μl/measuring point of a 0.1% crystal violet solution (pH 3.0). After three washing cycles of the stained cells with water, the plates were dried at room temperature. The dye was dissolved by adding 100 μl/measuring point of a 10% acetic acid solution. The extinction was determined by photometry at a wavelength of 595 nm. The change of cell number, in percent, was calculated by normalization of the measured values to the extinction values of the zero-point plate (=0%) and the extinction of the untreated (0 μm) cells (=100%). The IC50 values were determined by means of a 4 parameter fit.
The reference examples described above are characterized by the following IC50 values, determined in a HeLa cell proliferation assay (as described above): […]

IC50 [4]	Structure (SMILES)	other results
–	C[C@@H](C(=O)Nc1ccc(-c2ccn3nc(N(C(=O)OCOC(=O)[C@@H](N)C(C)(C)C)c4ccc(C(=O)N5CC(F)C5)cc4OCC(F)(F)F)nc3c2)cc1)c1ccc(F)cc1.Cl [Example 1.1, [({4-[(3-fluoroazetidin-1-yl)carbonyl]-2-(2,2,2-trifluoroethoxy)phenyl}[7-(4-{[(2R)-2-(4-fluorophenyl)propanoyl]amino}phenyl)[1,2,4]triazolo[1,5-a]pyridin-2-yl]carbamoyl)oxy]methyl 3-methyl-L-valinate hydrochloride]	% Test Compound after 4 h [F(t = 24 h) × 100/F(t = 0 h)] [1]: 0.0%; % Test Compound after 24 h [F(t = 24 h) × 100/F(t = 0 h)] [2]: 0.0%; % Test Compound after 4 h [F(t = 24 h) × 100/F(t = 0 h)] [3]: 0.0%
≤ 100 nM	C[C@@H](C(=O)Nc1ccc(-c2ccn3nc(Nc4ccc(S(C)(=O)=O)cc4OCC(F)(F)F)nc3c2)cc1)c1ccc(F)cc1 [Reference Example 01.05, (2R)-2-(4-fluorophenyl)-N-[4-(2-{[4-(methylsulfonyl)-2-(2,2,2-trifluoroethoxy)phenyl]amino}[1,2,4]triazolo[1,5-a]pyridin-7-yl)phenyl]propanamide]	–
≤ 100 nM	COc1cc(C(=O)N2CC(F)C2)ccc1Nc1nc2cc(-c3ccc(NC(=O)[C@H](C)c4ccc(F)cc4)cc3)ccn2n1 [Reference Example 01.02, (2R)—N-{4-[2-({4-[(3-fluoroazetidin-1-yl)carbonyl]-2-methoxyphenyl}amino)[1,2,4]triazolo[1,5-a]pyridin-7-yl]phenyl}-2-(4-fluorophenyl)propanamide]	–
≤ 100 nM	C[C@@H](C(=O)Nc1ccc(-c2ccn3nc(Nc4ccc(C(=O)N5CC(F)C5)cc4OCC(F)(F)F)nc3c2)cc1)c1ccc(F)cc1 [Reference Example 01.03, (2R)—N-{4-[2-({4-[(3-fluoroazetidin-1-yl)carbonyl]-2-(2,2,2-trifluoroethoxy)phenyl}amino)[1,2,4]triazolo[1,5-a]pyridin-7-yl]phenyl}-2-(4-fluorophenyl)propanamide]	–
≤ 100 nM	COc1cc(C(=O)N2CCC2)ccc1Nc1nc2cc(-c3ccc(NC(=O)[C@H](C)c4ccc(F)cc4)cc3)ccn2n1 [Reference Example 01.06, (2R)—N-[4-(2-{[4-(azetidin-1-ylcarbonyl)-2-methoxyphenyl]amino}[1,2,4]triazolo[1,5-a]pyridin-7-yl)phenyl]-2-(4-fluorophenyl)propanamide]	–
≤ 200 nM	COc1cc(S(C)(=O)=O)ccc1Nc1nc2cc(-c3ccc(NC(=O)[C@H](C)c4ccc(F)cc4)cc3)ccn2n1 [01.01, (2R)-2-(4-fluorophenyl)-N-[4-(2-{[2-methoxy-4-(methylsulfonyl)phenyl]amino}[1,2,4]triazolo[1,5-a]pyridin-7-yl)phenyl]propanamide]	–
